Three molecules from PMC5554889, “Development of a Potent Inhibitor of the Plasmodium Proteasome with Reduced Mammalian Toxicity” (Journal of Medicinal Chemistry, 2017) can be followed below.

Series [1] relates to ABC16-Monster S. cerevisiae. As to the kind of experiment: microbe, parasite or virus in culture. In kind it is cell-based. The settings on record: Saccharomyces cerevisiae.
In a further series the test system is HepG2 cells. As to the kind of experiment: HepG2 cytotoxicity assay. Type of series: cell-based, human. As to conditions: D-amino acid at P3; comparator not given.
In another series the test system is Dd2 parasites. Description: Artemisinin IC50 with proteasome inhibitor co-treatment, 72 h SYBR green assay. Type of series: cell-based. As to conditions: Plasmodium falciparum. As for the experimental part:
Compound susceptibility was measured using the malaria SYBR green I-based fluorescence assay.[39] Asynchronous P. falciparum parasites (Dd2 strain) were cultured in standard conditions before being plated for the assays. Each compound was tested over 72 h in technical duplicates on a 12-point concentration curve prepared by 3-fold dilution from 6.7 μM to 0.11 nM. At least three independent experiments were carried out for IC50 determination. Artemisinin and chloroquine were used as controls. IC50 values were obtained using normalized fluorescence intensity from SYBR green I and analyzed via nonlinear variable slope four-parameter regression curve-fitting model in Prism 6 (GraphPad Software Inc.).

By IC50 is commonly meant the concentration that inhibits the measured activity by half. As to `CCCCCC(=O)N[C@H](C(=O)N[C@@H](CCS(C)(=O)=O)C(=O)N[C@@H](CC(C)C)C(=O)[C@@]1(C)CO1)C(C)C` [Carmaphycin B, carmaphycin B], the IC50 is 24300 nM in series [1] (GM (parental ABC16-Monster strain), n=4); more than 150000 nM in series [1] (resistant Lineage 1); 52700 nM in series [1] (resistant Lineage 2, n=4); more than 100000 nM in series [1] (resistant Lineage 3).
As to `CCCCCC(=O)N[C@H](Cc1c[nH]c2ccccc12)C(=O)N[C@@H](CCCC)C(=O)N[C@@H](CC(C)C)C(=O)[C@@]1(C)CO1` [analog 19], the fold reduced toxicity entry in the series with HepG2 cells is recorded as “up to 100 fold”.
On to `C[C@@H]1CC[C@H]2[C@@H](C)C(=O)O[C@@H]3O[C@@]4(C)CC[C@@H]1[C@]32OO4` [artemisinin], for which the IC50 was 11 nM in the series with Dd2 parasites (DD2, Art + 0.5 nM Analog 18, n = 2); 13.5 nM in the series with Dd2 parasites (DD2, Art + 0.5 nM CarB, n = 2); 7.5 nM with Dd2 parasites (DD2, Art + 1.0 nM Analog 18, n = 2); 7 nM in the series on Dd2 parasites (DD2, Art + 1.0 nM CarB, n = 2); 23.5 nM in the series with Dd2 parasites (DD2, Art only, Figure 3B, mean ± SEM, n = 2); 19 nM in the series on Dd2 parasites (DD2, Art only, Figure 3C, mean ± SEM, n = 2). In addition, the IC50 in the series on Dd2 parasites (DD2, artemisinin alone, wild-type artemisinin-sensitive Dd2 parasites, span of both experiments) was 19 to 23.5 nM.
